Test results: patent US20250177429A1, “ORALLY ACTIVE PRODRUG OF GEMCITABINE” (Laevoroc Chemotherapy AG, priority 2022, published 2025)
Read-outs that look alike come from different tables or passages of the source.

How the values were obtained:
[1] = Stability in aqueous media at RT; format: physicochemical
Text: Regarding to the MS profile, most of the observed impurities concern a valproic moiety cleavage and/or valine moiety migration/cleavage. […] In agreement with earlier observation, a lower acidity medium will likely result in a higher ratio of valine hydrolysis.

[2] = Solubility of the mono-hydrochloride salt in water and buffer solutions; format: physicochemical; conditions: thermodynamic from solid; for solubility at 15 min: solid added until saturation
Protocol: In each case, a first estimation was performed by adding small amounts of solvents until dissolution of the solid (50 mg), followed by a second estimation performed through the addition of small amounts of solid to a determined quantity of solvent until saturation was reached (suspension observed after 15 min). This second estimation was undertaken twice for each solution.

[3] = Powder stability of the API on storage; format: physicochemical; conditions: powder form of the API, FIG. 3
[4] = system: Japanese patients; conditions: phase I, 2013; cited from earlier work
[5] = biological target: CDA (Homo sapiens, UniProt P32320); conditions: Bender et al. 2009; cited from earlier work
CDA, sequence (P32320 whole entry, species assumed): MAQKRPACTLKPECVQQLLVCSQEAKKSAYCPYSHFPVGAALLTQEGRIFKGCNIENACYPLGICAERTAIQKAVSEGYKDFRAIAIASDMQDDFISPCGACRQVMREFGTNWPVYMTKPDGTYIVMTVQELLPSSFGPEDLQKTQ

[6] = result of first pass metabolism; Shipley et al. 1992; cited from earlier work
[7] = system: mice; conditions: cited from earlier work

Q: Which “Stability in aqueous media at RT” value ([1]; Water, 30 Min) does the source give for `CCCC(CCC)C(=O)Nc1ccn([C@@H]2O[C@H](CO)[C@@H](OC(=O)[C@@H](N)C(C)C)C2(F)F)c(=O)n1.Cl` [LR-06-B.HCl, (2R,3R,5R)-4,4-difluoro-2-(hydroxymethyl)-5-(2-oxo-4-(2-propylpentanamido)-1,2-dihydropyrimidin-1-yl)oxolan-3-yl (2S)-2-amino-3-methylbutanoate hydrochloride] here?
A: 97.06%

Q: And the “Stability in aqueous media at RT” value ([1]; Water, 1 hour)?
A: 96.98%

Q: And the “Stability in aqueous media at RT” value ([1]; Water, 2 hours)?
A: 96.89%

Q: What about the “Stability in aqueous media at RT” value ([1]; Water, 4 hours) of the same compound?
A: 96.62%

Q: What about the “Stability in aqueous media at RT” value ([1]; Water, 6 hours) of the same compound?
A: 96.42%

Q: What about the “Stability in aqueous media at RT” value ([1]; Water, 1 day) of the same compound?
A: 94.45%

Q: What about the “Stability in aqueous media at RT” value ([1]; Water, 2 days) of the same compound?
A: 91.07%

Q: What about the “Stability in aqueous media at RT” value ([1]; Water, 7 days) of the same compound?
A: 77.12%

Q: What about the “Stability in aqueous media at RT” value ([1]; Water, time 0 (API Powder)) of the same compound?
A: 97.21%

Q: What about the “Degradation of the API in aqueous media” value ([1]; aqueous media, RT, FIG. 4) of the same compound?
A: significant short-term degradation

Q: What about the “Stability in aqueous media at RT” value ([1]; pH 1.2, 30 Min) of the same compound?
A: 97.03%

Q: What about the “Stability in aqueous media at RT” value ([1]; pH 1.2, 1 hour) of the same compound?
A: 96.83%

Q: What about the “Stability in aqueous media at RT” value ([1]; pH 1.2, 2 hours) of the same compound?
A: 96.42%

Q: And the “Stability in aqueous media at RT” value ([1]; pH 1.2, 4 hours)?
A: 95.71%

Q: What about the “Stability in aqueous media at RT” value ([1]; pH 1.2, 6 hours) of the same compound?
A: 95.14%

Q: What about the “Stability in aqueous media at RT” value ([1]; pH 1.2, 1 day) of the same compound?
A: 88.40%

Q: What about the “Stability in aqueous media at RT” value ([1]; pH 1.2, 2 days) of the same compound?
A: 80.05%

Q: And the “Stability in aqueous media at RT” value ([1]; pH 1.2, 7 days)?
A: 30.60%

Q: What about the “Stability in aqueous media at RT” value ([1]; pH 1.2, time 0 (API Powder)) of the same compound?
A: 97.21%

Q: What about the “Stability in aqueous media at RT” value ([1]; pH 4.5, 30 Min) of the same compound?
A: 96.45%

Q: What about the “Stability in aqueous media at RT” value ([1]; pH 4.5, 1 hour) of the same compound?
A: 96.35%

Q: What about the “Stability in aqueous media at RT” value ([1]; pH 4.5, 2 hours) of the same compound?
A: 96.24%

Q: And the “Stability in aqueous media at RT” value ([1]; pH 4.5, 4 hours)?
A: 95.46%

Q: What about the “Stability in aqueous media at RT” value ([1]; pH 4.5, 6 hours) of the same compound?
A: 94.87%

Q: And the “Stability in aqueous media at RT” value ([1]; pH 4.5, 1 day)?
A: 90.73%

Q: What about the “Stability in aqueous media at RT” value ([1]; pH 4.5, 2 days) of the same compound?
A: 84.24%

Q: What about the “Stability in aqueous media at RT” value ([1]; pH 4.5, 7 days) of the same compound?
A: 57.17%

Q: What about the “Stability in aqueous media at RT” value ([1]; pH 4.5, time 0 (API Powder)) of the same compound?
A: 97.21%

Q: And the “Stability in aqueous media at RT” value ([1]; pH 6.8, 30 Min)?
A: 91.08%

Q: And the “Stability in aqueous media at RT” value ([1]; pH 6.8, 1 hour)?
A: 87.32%

Q: What about the “Stability in aqueous media at RT” value ([1]; pH 6.8, 2 hours) of the same compound?
A: 80.70%

Q: And the “Stability in aqueous media at RT” value ([1]; pH 6.8, 4 hours)?
A: 65.65%

Q: What about the “Stability in aqueous media at RT” value ([1]; pH 6.8, 6 hours) of the same compound?
A: 57.40%

Q: And the “Stability in aqueous media at RT” value ([1]; pH 6.8, 1 day)?
A: 9.48%

Q: What about the “Stability in aqueous media at RT” value ([1]; pH 6.8, 2 days) of the same compound?
A: 7.48%

Q: What about the “Stability in aqueous media at RT” value ([1]; pH 6.8, 7 days) of the same compound?
A: 1.77%

Q: And the “Stability in aqueous media at RT” value ([1]; pH 6.8, time 0 (API Powder))?
A: 97.21%

Q: And the solubility ([2]; buffer solution pH 1.2, pH 1.2, simulated gastric fluid, Buffer pH 1.2, read-out: Mean solubility)?
A: 211 mg/mL

Q: And the solubility at 15 min ([2]; buffer solution pH 1.2, pH 1.2, simulated gastric fluid, Buffer pH 1.2, read-out: Solubility, Estimation 2a)?
A: 217 mg/mL

Q: What about the solubility at 15 min ([2]; buffer solution pH 1.2, pH 1.2, simulated gastric fluid, Buffer pH 1.2, read-out: Solubility, Estimation 2b) of the same compound?
A: 208 mg/mL

Q: And the solubility ([2]; buffer solution pH 1.2, pH 1.2, simulated gastric fluid, Buffer pH 1.2, solvent added until dissolution of 50 mg solid, read-out: Solubility, Estimation 1)?
A: 207 mg/mL

Q: And the solubility ([2]; buffer solution pH 4.5, pH 4.5, aqueous buffer, Buffer pH 4.5, read-out: Mean solubility)?
A: 227 mg/mL

Q: What about the solubility at 15 min ([2]; buffer solution pH 4.5, pH 4.5, aqueous buffer, Buffer pH 4.5, read-out: Solubility, Estimation 2a) of the same compound?
A: 236 mg/mL

Q: What about the solubility at 15 min ([2]; buffer solution pH 4.5, pH 4.5, aqueous buffer, Buffer pH 4.5, read-out: Solubility, Estimation 2b) of the same compound?
A: 233 mg/mL

Q: What about the solubility ([2]; buffer solution pH 4.5, pH 4.5, aqueous buffer, Buffer pH 4.5, solvent added until dissolution of 50 mg solid, read-out: Solubility, Estimation 1) of the same compound?
A: 213 mg/mL

Q: What about the solubility ([2]; buffer solution pH 6.8, pH 6.8, aqueous buffer, Buffer pH 6.8, read-out: Mean solubility) of the same compound?
A: 275 mg/mL

Q: And the solubility at 15 min ([2]; buffer solution pH 6.8, pH 6.8, aqueous buffer, Buffer pH 6.8, read-out: Solubility, Estimation 2a)?
A: 302 mg/mL

Q: And the solubility at 15 min ([2]; buffer solution pH 6.8, pH 6.8, aqueous buffer, Buffer pH 6.8, read-out: Solubility, Estimation 2b)?
A: 280 mg/mL

Q: What about the solubility ([2]; buffer solution pH 6.8, pH 6.8, aqueous buffer, Buffer pH 6.8, solvent added until dissolution of 50 mg solid, read-out: Solubility, Estimation 1) of the same compound?
A: 241 mg/mL

Q: And the solubility ([2]; water, Water, read-out: Mean solubility)?
A: 394 mg/mL

Q: What about the solubility at 15 min ([2]; water, Water, read-out: Solubility, Estimation 2a) of the same compound?
A: 463 mg/mL

Q: What about the solubility at 15 min ([2]; water, Water, read-out: Solubility, Estimation 2b) of the same compound?
A: 462 mg/mL

Q: And the solubility ([2]; water, Water, solvent added until dissolution of 50 mg solid, read-out: Solubility, Estimation 1)?
A: 257 mg/mL

Q: What about the “Powder stability, change on storage” value ([3]; 3 months' storage at 2-4° C.) of the same compound?
A: no significant change

Q: What about the “Powder stability, change on storage” value ([3]; 3 months' storage at RT) of the same compound?
A: no significant change

Q: Which results are given for `CCCC(CCC)C(=O)Nc1ccn([C@@H]2O[C@H](CO)[C@@H](O)C2(F)F)c(=O)n1` [LY2334737]?
A: Hepatic toxicity [4]: unexpected hepatic toxicities; Degradation by CDA [5]: significantly less prone to degradation by CDA

Q: With `Nc1ccn([C@@H]2O[C@H](CO)[C@@H](O)C2(F)F)c(=O)n1` [gemcitabine, Gemcitabine] as the compound, how does the Oral bioavailability [6] read?
A: poor

Q: What about the “Death or gastrointestinal toxicity after intravenous dosing” value ([7]; comparable exposures via intravenous dosing) of the same compound?
A: did not result in death or gastrointestinal toxicity

Q: And the “Intestinal lesions after single oral dose” value ([7]; single oral (gavage) dose of 167, 333, or 500 mg/kg, Horton et al. 2004)?
A: moderate-to-marked loss of mucosal epithelium (atrophic enteropathy)
